For 13 compounds, IC50 results are on record in US6472418B1, “Non-peptide NK1 receptors antagonists” (Warner-Lambert Company, priority 1998, dated 2002).

This experiment deals with T1, Human NK1 Receptor (Homo sapiens, UniProt P25103).
T1 construct: endogenous in cells; host or cells: Human lymphoma IM9 cells (whole cells)
T1 sequence (P25103 whole entry): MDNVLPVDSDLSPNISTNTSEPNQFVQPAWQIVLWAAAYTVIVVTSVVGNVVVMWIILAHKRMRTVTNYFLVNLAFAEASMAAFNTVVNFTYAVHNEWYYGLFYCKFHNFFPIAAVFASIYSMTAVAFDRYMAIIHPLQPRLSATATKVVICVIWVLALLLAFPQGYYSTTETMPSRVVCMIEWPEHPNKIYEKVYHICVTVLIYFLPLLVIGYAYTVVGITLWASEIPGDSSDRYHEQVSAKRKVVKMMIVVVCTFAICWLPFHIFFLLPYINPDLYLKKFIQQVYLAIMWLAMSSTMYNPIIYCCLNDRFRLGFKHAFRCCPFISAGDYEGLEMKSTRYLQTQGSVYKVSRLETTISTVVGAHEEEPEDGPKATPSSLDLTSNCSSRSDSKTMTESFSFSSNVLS
Briefly: In Vitro Human NK1 Receptor Binding Assay ([125I]Bolton-Hunter substance P displacement, IM9 cells). Conditions: human NK1 receptor, IM9 cells, [125I]Bolton-Hunter substance P; read-out: IC50 (nM) hNK1. The procedure, abridged: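 Radioligand displacement on whole IM9 human lymphoma cells (2.5×10^6 cells/mL) using [125I]Bolton-Hunter substance P (0.05-0.1 nM), 50 min at 21° C in Tris pH 7.4/MnCl2 buffer with protease inhibitors. Non-specific binding defined by […] [Sar9, Met(O2)11] substance P. Filtration, gamma counting, iterative curve fitting.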
Take `CC(Cc1c[nH]c2ccccc12)(NCc1cc2ccccc2o1)C(=O)NCc1cccc(N)c1` (stereo not shown) [compound 178, N-(3-Amino-benzyl)-2-[(benzofuran-2-ylmethyl)-amino]-3-(1H-indol-3-yl)-2-methyl-propionamide]: the IC50 was 1370 nM.

Consider `CC(Cc1c[nH]c2ccccc12)(NCc1cc2ccccc2o1)C(=O)NCc1cnc(N)nc1N` (stereo not shown) [compound 179, 2-[(Benzofuran-2-ylmethyl)-amino]-N-(2,4-diamino-pyrimidin-5-ylmethyl)-3-(1H-indol-3-yl)-2-methyl-propionamide], for which the IC50 stood at 5920 nM.

As to `CC(Cc1c[nH]c2ccccc12)(NCc1cc2ccccc2o1)C(=O)NCc1ccccc1F` (stereo not shown) [compound 180, 2-[(Benzofuran-2-ylmethyl)-amino]-N-(2-fluoro-benzyl)-3-(1H-indol-3-yl)-2-methyl-propionamide], the IC50 was 266 nM.

For the compound `CC(Cc1c[nH]c2ccccc12)(NCc1cc2ccccc2o1)C(=O)NCc1ccc(F)cc1F` (stereo not shown) [compound 181, 2-[(Benzofuran-2-ylmethyl)-amino]-N-(2,4-difluoro-benzyl)-3-(1H-indol-3-yl)-2-methyl-propionamide], the IC50 amounted to 269 nM.

Consider `CC(Cc1c[nH]c2ccccc12)(NCc1cc2ccccc2o1)C(=O)NCc1ccc(O)c(O)c1` (stereo not shown) [compound 182, 2-[(Benzofuran-2-ylmethyl)-amino]-N-(3,4-dihydroxy-benzyl)-3-(1H-indol-3-yl)-2-methyl-propionamide], for which the IC50 was more than 10000 nM.

Consider `CC(Cc1c[nH]c2ccccc12)(NCc1cc2ccccc2o1)C(=O)NC(CO)Cc1c[nH]cn1` (stereo not shown) [compound 183, 2-[(Benzofuran-2-ylmethyl)-amino]-N-[1-hydroxymethyl-2-(1H-imidazol-4-yl)-ethyl]-3-(1H-indol-3-yl)-2-methyl-propionamide], for which the IC50 was more than 10000 nM.

In the case of `CC(Cc1c[nH]c2ccccc12)(NCc1cc2ccccc2o1)C(=O)NCC1CCCCC1O` (stereo not shown) [compound 184, 2-[(Benzofuran-2-ylmethyl)-amino]-N-(2-hydroxy-cyclohexylmethyl)-3-(1H-indol-3-yl)-2-methyl-propionamide], the IC50 is more than 10000 nM.

With `CC(Cc1c[nH]c2ccccc12)(NCc1cc2ccccc2o1)C(=O)NCCCN1CCOCC1` (stereo not shown) [compound 185, 2-[(Benzofuran-2-ylmethyl)-amino]-3-(1H-indol-3-yl)-2-methyl-N-(3-morpholin-4-yl-propyl)-propionamide], the IC50 is more than 10000 nM.

Consider `CC(Cc1c[nH]c2ccccc12)(NCc1cc2ccccc2o1)C(=O)NCc1ccccc1O` (stereo not shown) [compound 186, 2-[(Benzofuran-2-ylmethyl)-amino]-N-(2-hydroxy-benzyl)-3-(1H-indol-3-yl)-2-methyl-propionamide], for which the IC50 is 84 nM.

With `COc1ccc(CNC(=O)C(C)(Cc2c[nH]c3ccccc23)NCc2cc3ccccc3o2)cc1F` (stereo not shown) [compound 187, 2-[(Benzofuran-2-ylmethyl)-amino]-N-(3-fluoro-4-methoxy-benzyl)-3-(1H-indol-3-yl)-2-methyl-propionamide], the IC50 is 131 nM.

`COc1ccc(CNC(=O)C(C)(Cc2c[nH]c3ccccc23)NCc2cc3ccccc3o2)c(N)c1` (stereo not shown) [compound 188, N-(2-Amino-4-methoxy-benzyl)-2-[(benzofuran-2-ylmethyl)-amino]-3-(1H-indol-3-yl)-2-methyl-propionamide]: the IC50 came to 2280 nM.

`CC(Cc1c[nH]c2ccccc12)(NCc1cc2ccccc2o1)C(=O)NCc1ccccc1Cl` (stereo not shown) [compound 189, 2-((Benzofuran-2-ylmethyl)-amino]-N-(2-chloro-benzyl)-3-(1H-indol-3-yl)-2-methyl-propionamide]: the half-maximal inhibitory concentration (IC50) was 1130 nM.

For `CC(Cc1c[nH]c2ccccc12)(NCc1cc2ccccc2o1)C(=O)NCc1c(F)cccc1F` (stereo not shown) [compound 190, 2-[(Benzofuran-2-ylmethyl)-amino]-N-(2,6-difluoro-benzyl)-3-(1H-indol-3-yl)-2-methyl-propionamide], the IC50 amounted to 3540 nM.
